# Read-outs that look alike come from different tables or passages of the source.
# Legend:
# [1] = test system: confluent HUVEC monolayers; assay: Endothelial monolayer permeability assay; details: FITC-dextran leakage, 1, 2, 4 h
# [2] = Pharmacokinetic study in Sprague-Dawley rats; details: rat, oral
# [3] = test system: DU 145 human prostate cancer cell line; assay: Cytotoxicity (SRB) assay, DU 145; assay type: cell-based; details: Homo sapiens, DU-145, Table 12; read-out: IC50 ± SEM, Du 145
# Excerpt: (§1) Cells were stained with SRB solution.
# [4] = test system: PPC-1 human prostate cancer cell line; assay: Cytotoxicity (SRB) assay, PPC-1; assay type: cell-based; details: Homo sapiens, PPC-1, Table 12; read-out: IC50 ± SEM, PPC-1 (converted)
# Excerpt: as §1
# [5] = test system: PC-3 human prostate cancer cell line; assay: cells; details: Homo sapiens
# Excerpt: as §1
# [6] = test system: MDA-MB-435 parental nonresistant melanoma cells; assay: Cytotoxicity (SRB) assay, MDA-MB-435; assay type: cell-based; details: Homo sapiens
# [7] = test system: LNCaP human prostate cancer cell line; assay: Cytotoxicity (SRB) assay, LNCaP; assay type: cell-based; details: Homo sapiens, LNCaP, Table 12; read-out: IC50 ± SEM, LNCaP (converted)
# Excerpt: as §1
# [8] = test system: MDA-MB-435/LCCMDR1 multidrug-resistant melanoma cells; assay: Cytotoxicity (SRB) assay, MDA-MB-435/LCCMDR1; assay type: cell-based; details: for IC50: Homo sapiens; for P-gp substrate / multidrug resistance in words: MDR melanoma line vs sensitive parent line
# [9] = test system: NCI/ADR-RES (P-gp over-expressing resistant line of OVCAR-8); assay: Cytotoxicity (SRB) assay, NCI/ADR-RES; assay type: cell-based, human
# [10] = test system: HEK293-pcDNA3.1 cells; assay: Cytotoxicity assay, HEK293-pcDNA3.1 (parental line of the MRP/BCRP sublines); assay type: cell-based; details: Table 14B; parental cell line; read-out: IC50 ± SEM, HEK293-pcDNA3.1
# [11] = test system: B16-F1 melanoma tumors; assay: In vivo B16-F1 melanoma allograft; set-up: species or system mouse; details: C57BL/6 mice, 13 days
# Protocol: Female C57/BL mice, age 4-6 weeks, were purchased from Harlan Laboratories (Harlan Laboratories Inc., Indianapolis, Ind.). The animal housing met the Association for Assessment and Accreditation and Laboratory Animal Care specifications. All of the procedures were conducted in accordance with guidelines of our Institutional Animal Care and Use Committee.
# Tumor volume was expressed in cubic millimeters.
# [12] = test system: OVCAR-8 human ovarian cell line; assay: Cytotoxicity (SRB) assay, OVCAR-8; assay type: cell-based; details: Table 14B, parental cell line, read-out: IC50 ± SEM, OVCAR-8
# [13] = test system: A375 human melanoma xenograft; assay: In vivo A375 human melanoma xenograft
# [14] = test system: A375MA2 melanoma cell line; assay: Cytotoxicity assay, A375MA2; assay type: cell-based; details: Table 14B, n = 3; read-out: IC50 ± SEM, A375MA2
# [15] = test system: A375 human melanoma cell line; assay: Cytotoxicity (SRB) assay, A375; assay type: cell-based; details: Homo sapiens, A-375, Table 14D; read-out: IC50 ± SEM, A375 (converted)
# [16] = test system: DU-145/TXR cells; assay: Growth inhibition, DU-145/TXR; assay type: cell-based; details: Homo sapiens; Table 12, in parentheses in the Du 145 column; read-out: IC50, DU-145/TXR
# [17] = test system: melanoma and prostate cancer cell lines; assay: Antiproliferative activity summarised over the cell line panel (range or average); assay type: cell-based; details: read-out: IC50 (range over tested cell lines)
# [18] = test system: WM-164 melanoma cells; assay: Microtubule imaging (immunofluorescence); assay type: cell-based, human; details: WM-164 cells, 18 h
# Excerpt: Primary antibody for tubulin and fluorescence-labeled secondary antibody were subsequently added to the cells. Cell nuclei were stained by DAPI. Whole Cell Stain Green was also applied to all cells. All images were acquired with an Olympus IX71 inverted fluorescence microscope (Olympus Corp., Tokyo, Japan) with overlays from separate images of tubulin (red), nuclei (blue), and whole cells (green).
# [19] = Pharmacokinetic study in ICR mice; details: mice, 15 mg/kg i.v.
# [20] = test system: Bovine brain tubulin; assay: In vitro tubulin polymerization assay (bovine brain tubulin); assay type: biochemical; details: 10 μM, absorbance 340 nm over 15 min
# Protocol: The spectrophotometer was maintained at 37° C. for tubulin polymerization.
# [21] = ICR mice, 4 consecutive days of intraperitoneal dosing
# [22] = test system: PC-3 xenograft; assay: In vivo PC-3 prostate tumor xenograft; details: for tumor volume at day 21: control 680 mm^3
# [23] = read-out: IC50 ± SEM, PC-3, Table 12
# [24] = Table 14D, read-out: IC50 ± SEM, MDA-MB-435 (converted)
# [25] = Table 14D, read-out: IC50 ± SEM, MDA-MB-435/LCC-6MDR1 (converted)
# [26] = Melanoma (A375) xenograft, 15 mg/kg i.p.
compound,measurement,setting,value
"COc1ccc(/C=C\c2cc(OC)c(OC)c(OC)c2)cc1O [CA4, Combretastatin A-4]",permeability of endothelial cell monolayer in words,[1],increased permeability
"COc1cc(C(=O)c2csc(Nc3ccc(F)cc3)n2)cc(OC)c1OC.Cl [5Hc, (2-(p-fluorophenylamino)thiazol-4-yl)(3,4,5-trimethoxyphenyl)methanone hydrochloride salt]",increased exposure (AUC) by the oral route compared to 1h,[2],more than 4.3 fold
"COc1cc(C(=O)c2c[nH]c(-c3ccc(C(C)(C)C)cc3)n2)cc(OC)c1OC [12w, (2-(4-tert-butylphenyl)-1H-imidazol-4-yl)(3,4,5-trimethoxyphenyl)methanone]",IC50,[3],1700 nM
same,IC50,[4],294 nM
same,IC50,[5]; [23],436 nM
same,IC50,[6]; [24],3690 nM
same,IC50,[7],423 nM
same,IC50,[8]; [25],3070 nM
"O=C(c1ccc(F)cc1)c1c[nH]c(-c2ccc(Cl)cc2)n1 [12fb, (2-(4-chlorophenyl)-1H-imidazol-4-yl)(4-fluorophenyl)methanone]",IC50,"[9]; Homo sapiens, NCI/ADR-RES, Table 14B, MDR1 overexpressed, read-out: IC50 ± SEM, NCI/ADR-RES",20 ± 6 nM
same,IC50,[10],54 nM
same,tumor growth inhibition (TGI value),[11]; 15 mg/kg,32%
same,tumor growth inhibition (TGI value),[11]; 45 mg/kg,82%
same,IC50,[12],45 ± 2 nM
same,well tolerated dose,"[13]; SHO mice, 31 days",25 mg/kg
same,IC50,[14],55 ± 4 nM
same,P-gp substrate / multidrug resistance in words,[8],not substrates for P-gp
"CCc1ccc(-c2nc(C(=O)c3cc(OC)c(OC)c(OC)c3)c[nH]2)cc1 [12q, (2-(4-ethylphenyl)-1H-imidazol-4-yl)(3,4,5-trimethoxyphenyl)methanone]",IC50,[15],1.4 nM
same,IC50,[3],25 nM
same,IC50,[4],15 nM
same,IC50,[5]; [23],13 nM
same,IC50,[6]; [24],107 ± 5 nM
same,IC50,[16],20 nM
same,IC50,[8]; [25],27 ± 3 nM
"COc1cc(C(=NC#N)c2csc(-c3ccccc3)n2)cc(OC)c1OC [2j, N-((2-phenylthiazol-4-yl)(3,4,5-trimethoxyphenyl)methylene)cyanamide]",Resistance factor,[9]; NCI/ADR-RES relative to OVCAR-8,0.4
same,IC50,"[5]; read-out: IC50 PC-3, SRB assay, prostate cancer PC-3",27 ± 1 nM
same,IC50,[17],20 to 60 nM
"COc1ccc(S(=O)(=O)Nc2cccnc2Nc2ccc(O)cc2)cc1 [ABT-751, reference compound]",effect on microtubules in words,[18],microtubule fragmentation
same,IC50,[10],645 ± 153 nM
same,IC50,"[8]; Table 14B, MDR1 overexpressed, read-out: IC50 ± SEM, MDA-MB-435/LCC6MDR1",577 ± 31 nM
same,P-gp substrate / multidrug resistance in words,[8],"not susceptible to MDR1, MRP, or BCRP"
"COc1cc(Cc2nc(-c3ccccc3)c(-c3ccccc3)[nH]2)cc(OC)c1OC [102 e, 4,5-Diphenyl-2-(3,4,5-trimethoxybenzyl)-1H-imidazole]",IC50,"[6]; Table 14C, melanoma cells, read-out: IC50 ± SEM MDA-MB-435",> 50000 nM
same,IC50,"[8]; Table 14C, melanoma cells, read-out: IC50 ± SEM MDA-MB-435/LCC-6MDR1",> 50000 nM
COc1cc(C(=O)c2csc(-c3ccc(F)cc3)n2)cc(OC)c1OC [2k],AUC,[19],2200 ng·h/mL
same,inhibition of tubulin polymerization,[20],90%
same,% T/C,[13]; [26],28%
same,T-C,[13]; [26],11 days
same,dose not causing greater than 10% loss of body weight,[21],≤ 15 mg/kg
same,% T/C,"[22]; PC-3, 5 mg/kg i.p.",21%
same,tumor volume at day 21,"[22]; PC-3, 5 mg/kg i.p. daily",269 mm^3
same,% T/C,"[22]; PC-3, 15 mg/kg i.p.",24%
same,tumor volume at day 21,"[22]; PC-3, 15 mg/kg i.p. daily",292 mm^3
same,mice that lost more than 15% body weight,"[22]; PC-3 xenograft, 15 mg/kg i.p.",2 out of 7

# From US11465987B2, “Compounds for treatment of cancer” (ONCTERNAL THERAPEUTICS, INC., priority 2012, dated 2022)
